Experiments:
Assay type in all cases: in vivo
[1] = tested on: pigweed (Amaranthus retroflexus); test: Test A preemergence, visual plant response rating; conditions: for Pigweed plant response rating: 125 g ai/ha, preemergence, 0 to 100 scale, 0 no effect, 100 complete control; for Pigweed plant response rating (0 to 100 scale): 500 g ai/ha Preemergence, approx. 10 days
Summary of the method: (§1)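 Greenhouse pot test in loam–sand soil mix: compound in a surfactant-containing non-phytotoxic solvent applied preemergence (directed soil spray) or postemergence (one- to two-leaf plants, 2–10 cm). Injury scored visually after ~10 days, 0–100.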

[2] = tested on: barnyardgrass (Echinochloa crus-galli); test: Test A preemergence, visual plant response rating; conditions: for Barnyardgrass plant response rating: 125 g ai/ha, preemergence, 0 to 100 scale, 0 no effect, 100 complete control; for Barnyardgrass plant response rating (0 to 100 scale): 500 g ai/ha Preemergence, approx. 10 days
Summary of the method: as §1

[3] = tested on: foxtail, giant (giant foxtail, Setaria faberii); test: Test A preemergence, visual plant response rating; conditions: for Foxtail, Giant plant response rating: 125 g ai/ha, preemergence, 0 to 100 scale, 0 no effect, 100 complete control; for Foxtail, Giant plant response rating (0 to 100 scale): 500 g ai/ha Preemergence, approx. 10 days
Summary of the method: as §1

kochia (Kochia scoparia) [4] = test: Test A preemergence, visual plant response rating; conditions: for Kochia plant response rating: 125 g ai/ha, preemergence, 0 to 100 scale, 0 no effect, 100 complete control; for Kochia plant response rating (0 to 100 scale): 500 g ai/ha Preemergence, approx. 10 days
Summary of the method: as §1

[5] = tested on: ragweed (common ragweed, Ambrosia elatior); test: Test A preemergence, visual plant response rating; conditions: for Ragweed plant response rating: 125 g ai/ha, preemergence, 0 to 100 scale, 0 no effect, 100 complete control; for Ragweed plant response rating (0 to 100 scale): 500 g ai/ha Preemergence, approx. 10 days
Summary of the method: as §1

[6] = tested on: Italian ryegrass (Lolium multiflorum); test: Test A preemergence, visual plant response rating; conditions: for Ryegrass, Italian plant response rating: 125 g ai/ha, preemergence, 0 to 100 scale, 0 no effect, 100 complete control; for Ryegrass, Italian plant response rating (0 to 100 scale): 500 g ai/ha Preemergence, approx. 10 days
Summary of the method: as §1

[7] = tested on: blackgrass (Alopecurus myosuroides); test: Test A postemergence, visual plant response rating; conditions: for Blackgrass plant response rating (0 to 100 scale): 500 g ai/ha, postemergence, 0 is no effect, 100 is complete control; for Blackgrass plant response rating: Postemergence, 125 g ai/ha, 0 to 100 scale (0 no effect, 100 complete control)
Summary of the method: as §1

[8] = tested on: pigweed (Amaranthus retroflexus); test: Test A postemergence, visual plant response rating; conditions: for Pigweed plant response rating (0 to 100 scale): 500 g ai/ha, postemergence, 0 is no effect, 100 is complete control; for Pigweed plant response rating: Postemergence, 125 g ai/ha, 0 to 100 scale (0 no effect, 100 complete control)
Summary of the method: as §1

[9] = tested on: barnyardgrass (Echinochloa crus-galli); test: Test A postemergence, visual plant response rating; conditions: for Barnyardgrass plant response rating (0 to 100 scale): 500 g ai/ha, postemergence, 0 is no effect, 100 is complete control; for Barnyardgrass plant response rating: Postemergence, 125 g ai/ha, 0 to 100 scale (0 no effect, 100 complete control)
Summary of the method: as §1

[10] = tested on: foxtail, giant (giant foxtail, Setaria faberii); test: Test A postemergence, visual plant response rating; conditions: for Foxtail, Giant plant response rating (0 to 100 scale): 500 g ai/ha, postemergence, 0 is no effect, 100 is complete control; for Foxtail, Giant plant response rating: Postemergence, 125 g ai/ha, 0 to 100 scale (0 no effect, 100 complete control)
Summary of the method: as §1

kochia (Kochia scoparia) [11] = test: Test A postemergence, visual plant response rating; conditions: for Kochia plant response rating (0 to 100 scale): 500 g ai/ha, postemergence, 0 is no effect, 100 is complete control; for Kochia plant response rating: Postemergence, 125 g ai/ha, 0 to 100 scale (0 no effect, 100 complete control)
Summary of the method: as §1

corn (Zea mays) = test: Test A postemergence, visual plant response rating; conditions: for Corn plant response rating (0 to 100 scale): 500 g ai/ha, postemergence, 0 is no effect, 100 is complete control; for Corn plant response rating: Postemergence, 125 g ai/ha, 0 to 100 scale (0 no effect, 100 complete control)
Summary of the method: as §1

[12] = tested on: wheat (Triticum aestivum); test: Test A postemergence, visual plant response rating; conditions: Postemergence; for Wheat plant response rating: 500 g ai/ha, 0 to 100 scale (0 no effect, 100 complete control); for Wheat plant response rating (0 to 100 scale): approx. 10 days
Summary of the method: as §1

[13] = tested on: ragweed (common ragweed, Ambrosia elatior); test: Test A postemergence, visual plant response rating; conditions: for Ragweed plant response rating (0 to 100 scale): 500 g ai/ha, postemergence, 0 is no effect, 100 is complete control; for Ragweed plant response rating: Postemergence, 125 g ai/ha, 0 to 100 scale (0 no effect, 100 complete control)
Summary of the method: as §1

[14] = tested on: galium (catchweed bedstraw, Galium aparine); test: Test A postemergence, visual plant response rating; conditions: for Galium plant response rating (0 to 100 scale): 500 g ai/ha, postemergence, 0 is no effect, 100 is complete control; for Galium plant response rating: Postemergence, 125 g ai/ha, 0 to 100 scale (0 no effect, 100 complete control)
Summary of the method: as §1

[15] = tested on: Italian ryegrass (Lolium multiflorum); test: Test A postemergence, visual plant response rating
Summary of the method: as §1

[16] = tested on: ducksalad (Heteranhera limosa); test: Test B flooded paddy test, visual plant response rating; conditions: 250 g ai/ha, Flood, applied to paddy water, 2-leaf stage, evaluated after 13 to 15 days
Summary of the method: (§2)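 Seedlings at 2 leaves; compound into paddy water (3 cm flood, maintained); 13–15 d greenhouse; visual score relative to controls.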

[17] = tested on: barnyardgrass (Echinochloa crus-galli); test: as above; conditions: 250 g ai/ha, Flood, applied to paddy water, 2-leaf stage, evaluated after 13 to 15 days
Summary of the method: as §2

rice (Oryza sativa) = test: as above; conditions: 250 g ai/ha, Flood, applied to paddy water, 2-leaf stage, evaluated after 13 to 15 days
Summary of the method: as §2

[18] = tested on: sedge, umbrella (small-flower umbrella sedge, Cyperus difformis); test: as above; conditions: 250 g ai/ha, Flood, applied to paddy water, 2-leaf stage, evaluated after 13 to 15 days
Summary of the method: as §2

[19] = 500 g ai/ha, postemergence, 0 is no effect, 100 is complete control
[20] = Postemergence, rate not given, approx. 10 days

CO/N=C(/c1c(O)c(Cl)nn(C)c1=O)c1cccc2ccccc12 [Compound 145, 6-chloro-5-hydroxy-4-[(E)-(methoxyimino)-1-naphthalenylmethyl]-2-methyl-3(2H)-pyridazinone]
Pigweed plant response rating [1]: 50
Pigweed plant response rating (0 to 100 scale) [1]: 90
Barnyardgrass plant response rating [2]: 60
Barnyardgrass plant response rating (0 to 100 scale) [2]: 80
Foxtail, Giant plant response rating [3]: 50
Foxtail, Giant plant response rating (0 to 100 scale) [3]: 80
Kochia plant response rating (kochia (Kochia scoparia) [4]): 70
Kochia plant response rating (0 to 100 scale) (kochia (Kochia scoparia) [4]): 90
Ragweed plant response rating [5]: 100
Ragweed plant response rating (0 to 100 scale) [5]: 100
Ryegrass, Italian plant response rating [6]: 0
Ryegrass, Italian plant response rating (0 to 100 scale) [6]: 10
Blackgrass plant response rating (0 to 100 scale) [7]: 70
Blackgrass plant response rating [7]: 30
Pigweed plant response rating (0 to 100 scale) [8]: 80
Pigweed plant response rating [8]: 30
Barnyardgrass plant response rating (0 to 100 scale) [9]: 60
Barnyardgrass plant response rating [9]: 30
Foxtail, Giant plant response rating (0 to 100 scale) [10]: 60
Foxtail, Giant plant response rating [10]: 30
Kochia plant response rating (0 to 100 scale) (kochia (Kochia scoparia) [11]): 90
Kochia plant response rating (kochia (Kochia scoparia) [11]): 80
Corn plant response rating (0 to 100 scale) (corn (Zea mays)): 0
Corn plant response rating (corn (Zea mays)): 0
Wheat plant response rating [12]: 0
Wheat plant response rating (0 to 100 scale) [12]: 0
Ragweed plant response rating (0 to 100 scale) [13]: 100
Ragweed plant response rating [13]: 100
Galium plant response rating (0 to 100 scale) [14]: 100
Galium plant response rating [14]: 90
Ryegrass, Italian plant response rating (0 to 100 scale) [15, 19]: 10
Ryegrass, Italian plant response rating (0 to 100 scale) [15, 20]: 20
Plant response rating, Ducksalad (0 to 100 scale, 0 is no effect, 100 is complete control) [16]: 0
Plant response rating, Barnyardgrass (0 to 100 scale, 0 is no effect, 100 is complete control) [17]: 0
Plant response rating, Rice (0 to 100 scale, 0 is no effect, 100 is complete control) (rice (Oryza sativa)): 0
Plant response rating, Sedge, Umbrella (0 to 100 scale, 0 is no effect, 100 is complete control) [18]: 0

CCO/N=C(\c1c(O)c(Cl)nn(C)c1=O)c1cccc2ccccc12 [Compound 146]
Pigweed plant response rating [1]: 80
Pigweed plant response rating (0 to 100 scale) [1]: 100
Barnyardgrass plant response rating [2]: 60
Barnyardgrass plant response rating (0 to 100 scale) [2]: 60
Foxtail, Giant plant response rating [3]: 70
Foxtail, Giant plant response rating (0 to 100 scale) [3]: 80
Kochia plant response rating (kochia (Kochia scoparia) [4]): 30
Kochia plant response rating (0 to 100 scale) (kochia (Kochia scoparia) [4]): 100
Ragweed plant response rating [5]: 90
Ragweed plant response rating (0 to 100 scale) [5]: 100
Ryegrass, Italian plant response rating [6]: 0
Ryegrass, Italian plant response rating (0 to 100 scale) [6]: 0
Blackgrass plant response rating (0 to 100 scale) [7]: 60
Blackgrass plant response rating [7]: 30
Pigweed plant response rating (0 to 100 scale) [8]: 90
Pigweed plant response rating [8]: 70
Barnyardgrass plant response rating (0 to 100 scale) [9]: 60
Barnyardgrass plant response rating [9]: 30
Foxtail, Giant plant response rating (0 to 100 scale) [10]: 70
Foxtail, Giant plant response rating [10]: 60
Kochia plant response rating (0 to 100 scale) (kochia (Kochia scoparia) [11]): 80
Kochia plant response rating (kochia (Kochia scoparia) [11]): 60
Corn plant response rating (0 to 100 scale) (corn (Zea mays)): 20
Corn plant response rating (corn (Zea mays)): 30
Wheat plant response rating [12]: 0
Wheat plant response rating (0 to 100 scale) [12]: 0
Ragweed plant response rating (0 to 100 scale) [13]: 100
Ragweed plant response rating [13]: 90
Galium plant response rating (0 to 100 scale) [14]: 90
Galium plant response rating [14]: 70
Ryegrass, Italian plant response rating (0 to 100 scale) [15, 19]: 0
Ryegrass, Italian plant response rating (0 to 100 scale) [15, 20]: 0
Plant response rating, Ducksalad (0 to 100 scale, 0 is no effect, 100 is complete control) [16]: 0
Plant response rating, Barnyardgrass (0 to 100 scale, 0 is no effect, 100 is complete control) [17]: 0
Plant response rating, Rice (0 to 100 scale, 0 is no effect, 100 is complete control) (rice (Oryza sativa)): 0
Plant response rating, Sedge, Umbrella (0 to 100 scale, 0 is no effect, 100 is complete control) [18]: 0

CCO/N=C(/c1c(O)c(Cl)nn(C)c1=O)c1cccc2ccccc12 [Compound 147]
Pigweed plant response rating [1]: 60
Pigweed plant response rating (0 to 100 scale) [1]: 100
Barnyardgrass plant response rating [2]: 50
Barnyardgrass plant response rating (0 to 100 scale) [2]: 60
Foxtail, Giant plant response rating [3]: 50
Foxtail, Giant plant response rating (0 to 100 scale) [3]: 80
Kochia plant response rating (kochia (Kochia scoparia) [4]): 100
Kochia plant response rating (0 to 100 scale) (kochia (Kochia scoparia) [4]): 100
Ragweed plant response rating [5]: 90
Ragweed plant response rating (0 to 100 scale) [5]: 100
Ryegrass, Italian plant response rating [6]: 0
Ryegrass, Italian plant response rating (0 to 100 scale) [6]: 0
Blackgrass plant response rating (0 to 100 scale) [7]: 60
Blackgrass plant response rating [7]: 30
Pigweed plant response rating (0 to 100 scale) [8]: 90
Pigweed plant response rating [8]: 40
Barnyardgrass plant response rating (0 to 100 scale) [9]: 60
Barnyardgrass plant response rating [9]: 20
Foxtail, Giant plant response rating (0 to 100 scale) [10]: 70
Foxtail, Giant plant response rating [10]: 30
Kochia plant response rating (0 to 100 scale) (kochia (Kochia scoparia) [11]): 90
Kochia plant response rating (kochia (Kochia scoparia) [11]): 40
Corn plant response rating (0 to 100 scale) (corn (Zea mays)): 30
Corn plant response rating (corn (Zea mays)): 0
Wheat plant response rating [12]: 0
Wheat plant response rating (0 to 100 scale) [12]: 0
Ragweed plant response rating (0 to 100 scale) [13]: 90
Ragweed plant response rating [13]: 100
Galium plant response rating (0 to 100 scale) [14]: 90
Galium plant response rating [14]: 90
Ryegrass, Italian plant response rating (0 to 100 scale) [15, 19]: 0
Ryegrass, Italian plant response rating (0 to 100 scale) [15, 20]: 0
Plant response rating, Ducksalad (0 to 100 scale, 0 is no effect, 100 is complete control) [16]: 0
Plant response rating, Barnyardgrass (0 to 100 scale, 0 is no effect, 100 is complete control) [17]: 0
Plant response rating, Rice (0 to 100 scale, 0 is no effect, 100 is complete control) (rice (Oryza sativa)): 0
Plant response rating, Sedge, Umbrella (0 to 100 scale, 0 is no effect, 100 is complete control) [18]: 0

Reference: US20210045385A1, “PYRIDAZINONE-SUBSTITUTED KETOXIMES AS HERBICIDES” (FMC Corporation, priority 2018, published 2021)
